Source: patent US6838477B2, “Lactacystin analogs” (President and Fellows of Harvard College, priority 1995, dated 2005)
Entries after “also recorded” stand apart in the source; their conditions may differ. Peptide text beside a SMILES is read from it. * marks the point of attachment. Cbz = O=C(OCc1ccccc1)*

Key:
[1] = biological target: T1, 20S proteasome chymotrypsin-like activity (Bos taurus, UniProt Q32KL2); assay: Kinetics of inhibition of 20S proteasome chymotrypsin-like activity (Suc-LLVY-AMC); assay type: biochemical, bovine; conditions: for κassoc = κobs/[I], Chymotrypsin-like activity (Suc-LLVY-AMC): 25° C.
T1 construct: from tissue; host or cells: bovine brain
Protocol: (§1) Experiments involving the proteasome were performed as follows: 20S proteasome (˜5 ng/μl) in 10 mM Tris-HCl, pH 7.5, 1 mM EDTA was incubated at 25° C. in the presence of lactacystin or lactacystin analogs in DMSO or MeOH [not exceeding 5% (v/v)]. Aliquots for fluorescence assay were removed at various times following addition of compound and diluted in 10 mM Tris-HCl, pH 7.5, 1 mM EDTA containing fluorogenic peptide substrates (100 μM final). Suc-LLVY-AMC, Cbz-GGR-βNA and […] (AMC=7-amido-4-methylcoumarin; βNA=β-naphthylamide) were used to assay for the chymotrypsin-like, trypsin-like and peptidylglutamyl-peptide hydrolyzing activities, respectively.
(§2) Fluorescent emission at 460 nm with excitation at 380 nm was measured for AMC-containing substrates, and emission at 410 nm with excitation at 335 nm was measured for βNA-containing substrates. The fluorescence assays were conducted at 25° C., each experiment was performed at least three times, and values represent mean±standard deviation.
(§3) The reversibility of the inhibitory effects was assessed by measuring residual peptidase activity after removal of excess inhibitor by extensive serial dilution/ultrafiltration.

[2] = biological target: T2, 20S proteasome trypsin-like activity (Bos taurus, UniProt Q2TBP0); assay: Kinetics of inhibition of 20S proteasome trypsin-like activity (Cbz-GGR-βNA); assay type: biochemical, bovine
T2 construct: from tissue; host or cells: bovine brain
Protocol: as §1, §2, §3

[3] = biological target: 20S proteasome peptidylglutamyl-peptide hydrolyzing activity (Bos taurus, UniProt Q3MHN0)
Protocol: as §1, §2, §3

α-Chymotrypsin = α-Chymotrypsin (Bos taurus, UniProt P00766, DEL14-15/DEL147-148); assay: Selectivity of protease inhibition: α-chymotrypsin; assay type: biochemical
Trypsin = biological target: T3, Trypsin (Bos taurus, UniProt P00760); assay: Selectivity of protease inhibition: trypsin; assay type: biochemical
T3 construct: gene PRSS1
T3 sequence (P00760 24-246): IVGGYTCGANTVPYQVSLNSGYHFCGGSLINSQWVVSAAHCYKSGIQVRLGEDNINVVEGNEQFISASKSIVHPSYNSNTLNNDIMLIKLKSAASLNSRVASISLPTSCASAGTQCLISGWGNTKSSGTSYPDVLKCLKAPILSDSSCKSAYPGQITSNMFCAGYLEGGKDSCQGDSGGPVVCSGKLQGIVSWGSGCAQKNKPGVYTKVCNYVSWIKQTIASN

Calpain I = biological target: T4, Calpain I (Homo sapiens, UniProt P07384); assay: Selectivity of protease inhibition: calpain I; assay type: biochemical
T4 sequence (P07384 1-714): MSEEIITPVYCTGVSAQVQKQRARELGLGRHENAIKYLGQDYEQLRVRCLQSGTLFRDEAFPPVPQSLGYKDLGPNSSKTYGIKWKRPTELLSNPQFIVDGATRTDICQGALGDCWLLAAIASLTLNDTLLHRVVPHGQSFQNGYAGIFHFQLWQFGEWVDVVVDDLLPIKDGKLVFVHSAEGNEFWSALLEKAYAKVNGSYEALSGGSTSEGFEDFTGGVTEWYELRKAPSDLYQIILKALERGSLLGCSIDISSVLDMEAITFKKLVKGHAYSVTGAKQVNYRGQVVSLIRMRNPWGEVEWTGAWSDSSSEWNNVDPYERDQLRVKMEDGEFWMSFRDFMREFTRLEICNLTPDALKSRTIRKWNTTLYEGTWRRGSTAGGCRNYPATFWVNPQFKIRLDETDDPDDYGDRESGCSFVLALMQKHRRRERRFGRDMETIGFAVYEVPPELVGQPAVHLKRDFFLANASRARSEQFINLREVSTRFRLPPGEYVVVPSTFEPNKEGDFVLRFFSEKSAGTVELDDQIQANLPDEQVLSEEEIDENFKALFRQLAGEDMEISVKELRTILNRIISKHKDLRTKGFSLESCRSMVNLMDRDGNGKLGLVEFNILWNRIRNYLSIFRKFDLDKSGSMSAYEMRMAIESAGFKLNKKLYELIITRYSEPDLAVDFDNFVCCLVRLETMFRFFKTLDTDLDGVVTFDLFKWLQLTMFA
T4 sequence (P04632 1-268 partner): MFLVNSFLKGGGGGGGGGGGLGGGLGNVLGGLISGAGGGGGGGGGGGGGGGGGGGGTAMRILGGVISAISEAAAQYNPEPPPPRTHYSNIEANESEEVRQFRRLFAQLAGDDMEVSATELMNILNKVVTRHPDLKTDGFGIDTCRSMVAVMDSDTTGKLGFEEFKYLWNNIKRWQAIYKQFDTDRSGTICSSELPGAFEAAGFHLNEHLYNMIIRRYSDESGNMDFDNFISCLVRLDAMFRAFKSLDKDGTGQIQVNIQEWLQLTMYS

Calpain II = biological target: T5, Calpain II (Homo sapiens, UniProt P17655); assay: Selectivity of protease inhibition: calpain II; assay type: biochemical
T5 sequence (P17655 1-700): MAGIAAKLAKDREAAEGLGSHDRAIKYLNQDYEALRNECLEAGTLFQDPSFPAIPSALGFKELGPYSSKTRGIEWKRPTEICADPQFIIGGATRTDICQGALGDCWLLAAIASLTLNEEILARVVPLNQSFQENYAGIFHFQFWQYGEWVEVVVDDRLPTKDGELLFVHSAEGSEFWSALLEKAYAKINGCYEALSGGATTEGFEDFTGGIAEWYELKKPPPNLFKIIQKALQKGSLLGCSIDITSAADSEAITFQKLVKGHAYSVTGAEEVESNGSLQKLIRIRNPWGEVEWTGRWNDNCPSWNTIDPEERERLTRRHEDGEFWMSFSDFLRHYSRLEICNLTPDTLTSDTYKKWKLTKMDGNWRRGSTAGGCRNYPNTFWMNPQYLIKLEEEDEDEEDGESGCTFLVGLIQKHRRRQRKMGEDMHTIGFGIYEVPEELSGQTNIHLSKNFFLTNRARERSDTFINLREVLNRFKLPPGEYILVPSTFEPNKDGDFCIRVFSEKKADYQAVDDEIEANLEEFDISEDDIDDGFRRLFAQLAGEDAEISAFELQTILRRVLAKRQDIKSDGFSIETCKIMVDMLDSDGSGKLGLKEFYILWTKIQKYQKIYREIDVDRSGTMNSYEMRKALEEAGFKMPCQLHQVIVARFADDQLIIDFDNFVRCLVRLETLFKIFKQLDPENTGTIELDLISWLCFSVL
T5 sequence (P04632 1-268 partner): T4 sequence (P04632 1-268 partner)

Papain = biological target: T6, Papain (Carica papaya, UniProt P00784); assay: Selectivity of protease inhibition: papain; assay type: biochemical
T6 sequence (P00784 134-345): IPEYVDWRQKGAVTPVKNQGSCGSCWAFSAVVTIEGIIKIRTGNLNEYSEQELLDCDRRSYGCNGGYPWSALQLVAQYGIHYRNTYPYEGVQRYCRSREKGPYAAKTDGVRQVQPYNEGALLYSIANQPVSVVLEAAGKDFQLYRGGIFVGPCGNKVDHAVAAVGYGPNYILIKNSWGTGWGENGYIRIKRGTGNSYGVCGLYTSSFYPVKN

Cathepsin B = Cathepsin B (Homo sapiens, UniProt P07858); assay: Selectivity of protease inhibition: cathepsin B; assay type: biochemical
IκB-α = assay: TNF-α dependent degradation of IκB-α in Hela cells (immunoblot); assay type: cell-based, human; conditions: 40 μM, 1 h pretreatment, 1,000 U/ml TNF-α
Protocol: Hela cells were plated onto 6-well plates in DME plus 10% fetal calf serum (3 mls/well). Cells were then pretreated with 0.125% DMSO 40 μM […] (carbobenzoxyl-leucinyl-leucinyl-leucinal-H)(40 μM, lanes 103), or 5 μM β-lactone for one hour, followed by treatment with 1,000 U/ml TNF-α or phosphate buffered saline (PBS). Cells were harvested after 0 min, 20 min, or 40 min of further incubation at 37° C. Cells were then lysed in buffer containing NP-40 and protease inhibitors, and the proteins separated on a 10% SDS-polyacrylamide gel. The proteins were then transferred to nitrocellulose and probed with antibodies against the C-terminal 20 amino acids of human IκB-α.

p105 to p50 processing = assay: Proteasome dependent p105 to p50 processing in transfected COS cells (pulse-chase); assay type: cell-based, African green monkey; conditions: 50 μM, 1 h pretreatment, 2 hour chase
Protocol: COS cells were plated onto 100 mm dishes, then, with DEAE-Destran, either mock transfected, or transfected with 3 μg of pcDNA plasmid containing the human p105 cDNA. Forty-eight hrs after transfection, cells were pretreated for 1 hour with 0.5% DMSO, 50 μM calpain inhibitor II, 50 μM MG132, or 10 μM β-lactone. Cells were then pulse labelled with 250 uCi/plate of ^35S-methionine/cysteine for 15 minutes, and either harvested immediately or followed by a 2 hour chase with excess unlabelled methionine and cysteine. Cells were then lysed with SDS/Tris, and proteins were immunoprecipitated with anti-p50 antibodies (recognize the N-terminal half of the p105 protein). These proteins were then separated on a 10% SDS-polyacrylamide gel, which was then fixed, dried, and exposed to autoradiographic film.

PC12 cells = conditions: Tsubuki et al. 1993; cited from earlier work
20S proteasome = biological target: T7, 20S proteasome (Bos taurus, UniProt Q2TBP0+Q32KL2); assay: Labeling of 20S proteasome subunits by tritiated compound, reverse-phase HPLC separation; assay type: binding, bovine
T7 construct: from tissue; host or cells: bovine brain
Protocol: This peak was isolated and treated with 10 μM [^3H]lactacystin or 10 μM [^3H]β-lactone for 24 h at 25° C. Trifluoroacetic acid (TFA) was added to 0.1%, and the sample was allowed to stand at room temperature for 20 min. Reverse-phase HPLC was then carried out at room temperature using a Vydac C4 column (300 Å/4.6×150 mm) with 20-40% acetonitrile/0.1% TFA over 10 min and then 40-55% acetonitrile/0.1% TFA over 30 min (flow rate=0.8 ml/min). An IN/US β-RAM in-line scintillation detector was used to monitor radioactivity.

[4] = residual activity after removal of excess inhibitor by serial dilution/ultrafiltration
[5] = relative to kassoc for chymotrypsin-like activity

6-deoxylactacystin
κassoc = κobs/[I], Chymotrypsin-like activity (Suc-LLVY-AMC) ([1]; compound 12.5 μM): No inhibition

CC(=O)NC(CSC(=O)C1(C(O)C(C)C)NC(=O)C(C)C1O)C(=O)O [(6R,7S)Lactacystin (6-epi,7-epi), (6R,7S)-lactacystin]
κassoc = κobs/[I], Chymotrypsin-like activity (Suc-LLVY-AMC) ([1]; compound 12.5 μM): No inhibition

CC(=O)N[C@@H](CSC(=O)[C@]1([C@@H](O)C(C)C)NC(=O)[C@H](C)[C@@H]1O)C(=O)O [Lactacystin, lactacystin]
κassoc = κobs/[I], Chymotrypsin-like activity (Suc-LLVY-AMC) ([1]; compound 10 μM): 194 ± 15 s^−1M^−1 | kinact/KI ([1]; read-out: kassoc, apparent second-order rate constant for association, chymotrypsin-like activity): 194 ± 15 M⁻¹ s⁻¹ | reversibility of inhibition of chymotrypsin-like activity [1, 4]: irreversibly; also recorded: still completely inhibited | κassoc = κobs/[I], Trypsin-like activity (Cbz-GGR-βNA) ([2]; compound 10 μM, 25° C.): 10.1 ± 1.8 s^−1M^−1 | trypsin-like activity inhibited more slowly than chymotrypsin-like activity [2, 5]: 20 fold | reversibility of inhibition of trypsin-like activity [2, 4]: irreversibly; also recorded: still completely inhibited | κassoc = κobs/[I], Peptidylglutamyl-peptide hydrolyzing activity (Cbz-LLE-βNA) ([3]; compound 100 μM, 25° C.): 4.2 ± 0.6 s^−1M^−1 | PGPH activity inhibited more slowly than chymotrypsin-like activity [3, 5]: 50 fold | reversibility of inhibition of PGPH activity [3, 4]: reversibly; also recorded: return of the catalytic activity | Effect of lactacystin (100 μM) on α-Chymotrypsin (α-Chymotrypsin; 100 μM, Suc-LLVY-AMC, 25° C.): No inhibition | inhibition of α-chymotrypsin activity (α-Chymotrypsin; concentration not given): do not inhibit | Effect of lactacystin (100 μM) on Trypsin (Trypsin; 100 μM, Cbz-GGR-βNA, 25° C.): No inhibition | inhibition of trypsin activity (Trypsin; concentration not given): do not inhibit | Effect of lactacystin (100 μM) on Calpain I (Calpain I; 100 μM, Suc-LLVY-AMC, 25° C.): No inhibition | inhibition of calpain I activity (Calpain I; concentration not given): do not inhibit | Effect of lactacystin (100 μM) on Calpain II (Calpain II; 100 μM, Suc-LLVY-AMC, 25° C.): No inhibition | inhibition of calpain II activity (Calpain II; concentration not given): do not inhibit | Effect of lactacystin (100 μM) on Papain (Papain; 100 μM, Cbz-RR-AMC, 25° C.): No inhibition | inhibition of papain activity (Papain; concentration not given): do not inhibit | Effect of lactacystin (100 μM) on Cathepsin B (Cathepsin B; 100 μM, Cbz-RR-AMC, 25° C.): No inhibition | inhibition of cathepsin activity (Cathepsin B; concentration not given): do not inhibit

CC(C)C[C@@H](C=O)NC(=O)[C@H](CC(C)C)NC(=O)[C@H](CC(C)C)NC(=O)OCc1ccccc1 [MG132, carbobenzoxyl-leucinyl-leucinyl-leucinal-H] (Cbz-Leu-Leu-Leu-aldehyde)
degradation of IκB after TNF induction (IκB-α): blocks the degradation | phosphorylated form of IκB (IκB-α): stabilizes the phosphorylated form | processing of p105 to p50 (appearance of p50) (p105 to p50 processing): completely blocks the appearance of p50 | optimal concentration for inducing neurite outgrowth (PC12 cells): 30 nM

CC(=O)N[C@@H](CSC(=O)[C@]1([C@@H](O)C(C)C)NC(=O)[C@H](C)[C@@H]1O)C(=O)O [[^3H]lactacystin]
association of radioactivity with HPLC-separated proteasome subunit peaks (20S proteasome; 10 μM, 24 h at 25° C., first peak ~32 kDa (α chain), second peak ~24 kDa (X/MB1)): exclusively with the first two peaks | labeling of the first peak (~32 kDa protein) (20S proteasome; 24 hour reaction): significant labeling

CSCC[C@@H](C=O)NC(=O)[C@H](CC(C)C)NC(=O)[C@H](CC(C)C)NC(C)=O [calpain inhibitor II] (Ac-Leu-Leu-Met-aldehyde)
processing of p105 to p50 (appearance of p50) (p105 to p50 processing): no effect
